Measurements reported in patent publication US7049332B2, “HIV inhibiting N-aminoimidazole derivatives” (K. U. Leuven Research & Development, priority 2001, dated 2006).
In brackets after ≈: the same amount, converted by molar mass.

Tests used:
HIV-1 (NL4.3 WT) = assay: Inhibition of HIV-induced cytopathogenic effect in MT-4 cells (MTT), HIV-1; assay type: cell-based; conditions: for IC50: Human immunodeficiency virus 1, MT4, 50% protection against HIV-induced cytopathogenic effect, MT-4 cells, MTT; for HIV-1 (NL4.3 WT) SI: selectivity index = ratio of CC50 to IC50, HIV-1
Experimental: (§1) A rapid and automated assay procedure was used for the in vitro evaluation of anti-HIV agents. An HTLV-1 transformed T4-cell line MT-4, which was previously shown to be highly susceptible to and permissive for HIV infection, served as the target cell line. Inhibition of the HIV-induced cytopathogenic effect was used as the end point. The viabitlity of both HIV-and mock-infected cells was assessed spectrophotometrically via in situ reduction of 3-(4,5-dimethylthiazol-2-yl)-2,5-diphenyltetrazolium bromide (MTT). The 50% cytotoxic concentration (CC50 in μg/ml) was defined as the concentration of compound that reduced the absorbance of the mock-infected control sample by 50%. The percent protection achieved by the compound in HIV-infected cells was calculated by the following formula:
(§2) [formula] whereby (ODT)HIV is the optical density measured with a given concentration of the test compound in HIV-infected cells; (ODC)HIV is the optical density measured for the control untreated HIV-infected cells; (ODC)MOCK is the optical density measured for the control untreated mock-infected cells; all optical density values were determined at 540 nm. The dose achieving 50% protection according to the above formula was defmed as the 50% inhibitory concentration (IC50 in μg/ml). The ratio of CC50 to IC50 was defined as the selectivity index (SI).
(§3) Cells: MT-4 cells (Miyoshi et al., 1982) were grown and maintained in RPMI 1640 medium supplemented with 10% heat-inactivated fetal calf serum, 2 mM 1-glutamine, 0.1% sodium bicarbonate, and 20 œg of gentamicin per ml.
(§4) Viruses: The HIV-1(NL4.3) strain (Adachi et al., 1986) is a molecular clone obtained from the National Institutes of Health (Bethesda, Md.). The HIV-2(ROD) (Barr,-Sinoussi et al., 1983) stock was obtained from culture supernatant of HIV-2 infected cell lines.

[1] = Cytotoxicity in mock-infected MT-4 cells (MTT); assay type: cell-based; conditions: human; mock-infected MT-4 cells, absorbance reduced by 50%, MTT
Experimental: as §1, with “formula: Examples of inhibition of cell proliferation by particular compounds of formula (I) can be found by looking at the respective CC50 values in the MT-4 cell line. Cells: MT-4 cells (Miyoshi et al., 1982) were grown and maintained in RPMI 1640 medium supplemented with 10% heat-inactivated fetal calf serum, 2 mM […], 0.1% sodium bicarbonate, and 20 œg of gentamicin per ml.” for “formula:”

HIV-2 (ROD) = assay: Inhibition of HIV-induced cytopathogenic effect in MT-4 cells (MTT), HIV-2; assay type: cell-based; conditions: for IC50: Human immunodeficiency virus 2, MT4, 50% protection against HIV-induced cytopathogenic effect, MT-4 cells, MTT; for HIV-2 (ROD) SI: selectivity index = ratio of CC50 to IC50, HIV-2
Experimental: as §1, §2, §3, §4

| melting point | Compound | other results |
| --- | --- | --- |
| 144 °C | Cc1cccc(Nn2cnc(C)c2C)c1 [Compound 13.08, 4,5-Dimethyl-1-(3-methylphenylamino)-1H-imidazole] | – |
| 154 to 156 °C | Cc1cc(C)cc(Nn2cnc(C)c2-c2ccccc2)c1 [Compound 13.13, 1-(3,5-Dimethylphenylamino)-4-methyl-5-phenyl-1H-imidazole] | – |
| 164 °C | Cc1ncn(Nc2cccc(Cl)c2)c1-c1cccc(Br)c1 [Compound 13.02, 5-(3-Bromophenyl)-1-(3-chlorophenylamino)-4-methyl-1H-imidazole] | IC50 (HIV-1 (NL4.3 WT)): 0.5 µg/mL (≈ 1.38 µM); HIV-1 (NL4.3 WT) SI (HIV-1 (NL4.3 WT)): 6.7; CC50 [1]: 3.13 µg/mL (≈ 8.63 µM); IC50 (HIV-2 (ROD)): 0.3 µg/mL (≈ 0.827 µM); HIV-2 (ROD) SI (HIV-2 (ROD)): 9.5 |
| 159 °C | Cc1cccc(Nn2cnc(C)c2-c2ccccc2)c1 [Compound 13.09, 4-Methyl-1-(3-methylphenylamino)-5-phenyl-1H-imidazole] | IC50 (HIV-1 (NL4.3 WT)): 1.4 µg/mL (≈ 5.32 µM); HIV-1 (NL4.3 WT) SI (HIV-1 (NL4.3 WT)): 5.6; CC50 [1]: 7.6 µg/mL (≈ 28.9 µM); IC50 (HIV-2 (ROD)): > 7.6 µg/mL; HIV-2 (ROD) SI (HIV-2 (ROD)): <1 |
| 155 °C | Cc1ncn(Nc2ccc(F)cc2)c1-c1ccccc1 [Compound 13.10, 1-(4-Fluorophenylamino)-4-methyl-5-phenyl-1H-imidazole] | – |
| 180 °C | Clc1cccc(Nn2cnc3c2CCCC3)c1 [Compound 13.04, 1-(3-Chlorophenylamino)-4,5,6,7-tetrahydro-1H-benzimidazole] | – |
| 138 to 140 °C | Cc1cccc(Nn2cnc(C)c2-c2cccc(C#N)c2)c1 [Compound 13.16, 5-(3-Cyanophenyl)-4-methyl-1-(3-methylphenylamino)-1H-imidazole] | – |
| 158 to 160 °C | CCc1ncn(Nc2cccc(C)c2)c1-c1ccccc1 [Compound 13.11, 4-Ethyl-1-(3-methylphenylamino)-5-phenyl-1H-imidazole] | – |
| 156 to 158 °C | COc1cccc(Nn2cnc(C)c2-c2ccccc2)c1 [Compound 13.14, 1-(3-Methoxyphenylamino)-4-methyl-5-phenyl-1H-imidazole] | – |
| 178 °C | Cc1ncn(Nc2ccccc2)c1C [Compound 13.06, 4,5-Dimethyl-1-phenylamino-1H-imidazole] | – |
| 165 to 167 °C | Cc1ncn(Nc2ccccc2)c1-c1ccccc1 [Compound 13.05, 4-Methyl-5-phenyl-1-phenylamino-1H-imidazole] | – |
| 146 °C | Cc1ncn(Nc2cccc(Cl)c2)c1C [Compound 13.07, 1-(3-Chlorophenylamino)-4,5-dimethyl-1H-imidazole] | – |

Continued, molecule first:

| Compound | melting point | other results |
| --- | --- | --- |
| S=c1[nH]c2c(n1Nc1cccc(Cl)c1)CCCC2 [Compound 9.11, 1-(3-Chlorophenylamino)-2,3,4,5,6,7-hexahydro-1H-benzimidazole-2-thione] | 148 °C | IC50 (HIV-1 (NL4.3 WT)): 13.1 µg/mL (≈ 46.8 µM); HIV-1 (NL4.3 WT) SI (HIV-1 (NL4.3 WT)): 2.6; CC50 [1]: 34 µg/mL (≈ 122 µM); IC50 (HIV-2 (ROD)): > 34 µg/mL; HIV-2 (ROD) SI (HIV-2 (ROD)): <1 |
| Cc1cccc(Nn2c(-c3ccccc3)c(C)[nH]c2=S)c1 [Compound 9.19, 2,3-Dihydro-4-methyl-1-(3-methylphenylamino)-5-phenyl-1H-imidazole-2-thione] | 206 °C | IC50 (HIV-1 (NL4.3 WT)): 0.6 µg/mL (≈ 2.03 µM); HIV-1 (NL4.3 WT) SI (HIV-1 (NL4.3 WT)): 32.3; CC50 [1]: 20.7 µg/mL (≈ 70.1 µM); IC50 (HIV-2 (ROD)): > 20.7 µg/mL; HIV-2 (ROD) SI (HIV-2 (ROD)): <1 |
| COC(=O)c1cccc(-c2c(C)[nH]c(=S)n2Nc2cccc(C)c2)c1 [Compound 9.35, 2,3-Dihydro-4-methyl-1-(3-methylphenylamino)-5-(3-methoxycarbonylphenyl)-1H-imidazole-2-thione] | 164 to 166 °C | – |
| Cc1[nH]c(=S)n(Nc2cccc(Cl)c2)c1C [Compound 9.20, 2,3-Dihydro-4,5-dimethyl-1-(3-chlorophenylamino)-1H-imidazole-2-thione] | 234 °C | – |
| COC(=O)c1c(C)[nH]c(=S)n1Nc1cccc(Cl)c1 [Compound 9.27, 1-(3-Chlorophenylamino)-2,3-dihydro-5-methoxycarbonyl-4-methyl-1H-imidazole-2-thione] | 194 to 196 °C | – |
| Cc1[nH]c(=S)n(Nc2ccc(Cl)cc2)c1-c1ccccc1 [Compound 9.04, 1-(4-Chlorophenylamino)-2,3-dihydro-4-methyl-5-phenyl-1H-imidazole-2-thione] | 212 to 214 °C | – |
| Cc1[nH]c(=S)n(Nc2ccccc2)c1C [Compound 9.21, 2,3-Dihydro-4,5-dimethyl-1-(phenylamino)-1H-imidazole-2-thione] | 217 to 219 °C | – |
| CSc1nc(C)c(-c2ccccc2)n1Nc1cccc(Cl)c1 | 215 °C | – |
| S=c1[nH]c(-c2ccccc2)c(-c2ccccc2)n1Nc1cccc(Cl)c1 [Compound 9.26, 1-(3-Chlorophenylamino)-2,3-dihydro-4,5-diphenyl-1H-imidazole-2-thione] | 178 to 180 °C | – |
| Cc1[nH]c(=S)n(Nc2ccccc2)c1-c1ccccc1 [Compound 9.12, 2,3-Dihydro-4-methyl-5-phenyl-1-(phenylamino)-1H-imidazole-2-thione] | 224 to 226 °C | IC50 (HIV-1 (NL4.3 WT)): 5.2 µg/mL (≈ 18.5 µM); HIV-1 (NL4.3 WT) SI (HIV-1 (NL4.3 WT)): 2.8; CC50 [1]: 14.7 µg/mL (≈ 52.2 µM); IC50 (HIV-2 (ROD)): > 14.7 µg/mL; HIV-2 (ROD) SI (HIV-2 (ROD)): <1 |
| COc1ccc(-c2c(C)[nH]c(=S)n2Nc2cccc(Cl)c2)cc1 [Compound 9.09, 2,3-Dihydro-1-(3-chlorophenylamino)-5-(4-methoxyphenyl)-4-methyl-1H-imidazole-2-thione] | 226 °C | – |
| Cc1cccc(Nn2c(C)c(C)[nH]c2=S)c1 [Compound 9.22, 2,3-Dihydro-4,5-dimethyl-1-(3-methylphenylamino)-1H-imidazole-2-thione] | 230 °C | – |
| Cc1[nH]c(=S)n(Nc2cccc(Cl)c2)c1-c1cccc(Cl)c1 [Compound 9.07, 5-(3-Chlorophenyl)-1-(3-chlorophenylamino)-2,3-dihydro-4-methyl-1H-imidazole-2-thione] | 204 °C | IC50 (HIV-1 (NL4.3 WT)): 0.9 µg/mL (≈ 2.57 µM); HIV-1 (NL4.3 WT) SI (HIV-1 (NL4.3 WT)): 18.3; CC50 [1]: 15.9 µg/mL (≈ 45.4 µM); IC50 (HIV-2 (ROD)): 1.4 µg/mL (≈ 4 µM); HIV-2 (ROD) SI (HIV-2 (ROD)): 11.6 |
| Cc1[nH]c(=S)n(Nc2ccc(F)cc2)c1-c1ccccc1 [Compound 9.03, 2,3-Dihydro-1-(4-fluorophenylamino)-4-methyl-5-phenyl-1H-imidazole-2-thione] | 228 °C | – |
| CCc1[nH]c(=S)n(Nc2cccc(Cl)c2)c1-c1ccccc1 [Compound 9.24, 1-(3-Chlorophenylamino)-2,3-dihydro-4-ethyl-5-phenyl-1H-imidazole-2-thione] | 116 to 118 °C | – |
| Cc1c(-c2ccccc2)[nH]c(=S)n1Nc1cccc(Cl)c1 [Compound 9.10, 1-(3-Chlorophenylamino)-2,3-dihydro-5-methyl-4-phenyl-1H-imidazole-2-thione] | 238 °C | – |
| COC(=O)c1[nH]c(=S)n(Nc2cccc(Cl)c2)c1C [Compound 9.29, 1-(3-Chlorophenylamino)-2,3-dihydro-4-methoxycarbonyl-5-methyl-1H-imidazole-2-thione] | 160 to 162 °C | – |
| Cc1nc(SCc2ccccc2)n(Nc2cccc(Cl)c2)c1-c1ccccc1 | 130 °C | – |
| Cc1[nH]c(=S)n(Nc2cccc(Cl)c2)c1-c1ccc(Cl)cc1 [Compound 9.08, 5-(4-Chlorophenyl)-1-(3-chlorophenylamino)-2,3-dihydro-4-methyl-1H-imidazole-2-thione] | 225 °C | – |
| Cc1cccc(Nn2c(-c3ccccc3)c(C(C)C)[nH]c2=S)c1 [Compound 9.23, 2,3-Dihydro-4-isopropyl-1-(3-methylphenylamino)-5-phenyl-1H-imidazole-2-thione] | 220 to 222 °C | – |
| Cc1[nH]c(=S)n(Nc2cccc(Cl)c2)c1C(=O)O [Compound 9.28, 1-(3-Chlorophenylamino)-2,3-dihydro-5-hydroxycarbonyl-4-methyl-1H-imidazole-2-thione] | 166 to 168 °C | – |
